Results as given in patent publication EP4603105A1, “PHARMACEUTICAL COMPOSITION CONTAINING CYCLIC COMPOUND HAVING SELECTIVE KRAS INHIBITORY EFFECT AGAINST HRAS AND NRAS” (CHUGAI SEIYAKU KABUSHIKI KAISHA, priority 2022, dated 2024).
Where a SMILES comes first, the peptide text is derived from it. Bridges are numbered along the chain shown (N, C = ends). [ ]: non-standard residue; d: D form. The star is where a group is joined. hPhe(3-Cl-4-CF3) = N[C@@H](CCc1ccc(C(F)(F)F)c(Cl)c1)C(=O)O; NPrPhe(4-CF3) = CCCN[C@@H](Cc1ccc(C(F)(F)F)cc1)C(=O)O; NMeGly(cPent) = CN[C@H](C(=O)O)C1CCCC1; cisHyp = O=C(O)[C@@H]1C[C@H](O)CN1; NMeD = CN[C@@H](CC(=O)O)C(=O)O; NMeL = CN[C@@H](CC(C)C)C(=O)O; Morpholide = C1CN(*)CCO1; NMeA = CN[C@@H](C)C(=O)O; Ac5c = NC1(C(=O)O)CCCC1; Aze = O=C(O)[C@@H]1CCN1; Sar = CNCC(=O)O

Key:
[1] = target: GDP-bound NRAS wild-type protein (Homo sapiens, UniProt P01111); experiment: Binding to NRAS by surface plasmon resonance (SPR), KD and KD ratio to KRAS
Protocol: (§1) Surface plasmon resonance was used to analyze the binding affinity of compounds for KRAS, NRAS, and HRAS. The apparatus used was Biacore 8K, 8K+, or T200 (GE Healthcare), and the running buffer used was HBS (10 mM HEPES-NaOH, 150 mM NaCl, pH 7.4) containing 1 mM DTT, 10 mM MgCl2, 0.01% Tween 20, 10 µM GDP, and 4% DMSO.
(§2) Biotinylated Avi-tag fusion KRAS, NRAS, and HRAS proteins were expressed in E. coli BL21 (DE3) strains, and after cells were homogenized, they were purified using Streptavidin Mutein Matrix and Superdex 75. After purification, GDP-loaded KRAS, NRAS, and HRAS proteins were immobilized on the surface of Sensor Chip CAP (Cytiva) coated with Biotin CAPture Reagent in an immobilization amount of about 100 to 300 RU. Binding of each compound was evaluated by the Single Cycle Kinetics method, and a running buffer or a compound solution was added to the RAS protein non-immobilized surface and the immobilized surface to obtain a binding response. The flow rate was set to 100 µL/min, and in the compound-adding cycle, compound solutions having different concentrations were intermittently added for 75 seconds each, starting from a low concentration. […] In the blank cycle, a running buffer was intermittently added and not the compound solution. The Biotin CAPture Reagent and RAS proteins were immobilized for each cycle, and at the end of each cycle, the sensor chip was regenerated by the regeneration solution appended to the Biotin CAPture Kit (Cytiva). Measurement was carried out at 30°C.
(§3) The resulting sensorgram was subjected to curve fitting based on a 1:1 binding model on Biacore Insight Evaluation Software or T200 Evaluation Software, and thereby the dissociation constant KD of each compound with respect to KRAS, NRAS, and HRAS was determined. […] Blank indicates a compound from which the KD value with respect to NRAS or HRAS was not obtained.

HRAS wild-type protein = HRAS wild-type protein (Homo sapiens, UniProt P01112); experiment: Binding to HRAS by surface plasmon resonance (SPR), KD and KD ratio to KRAS
Protocol: as §1, §2, §3

[2] = test system: human lung cancer strain NCI-H441; type: cell-based
Method in brief: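 Step one: dispense the test compound in serial DMSO dilutions. Step three: add the reagent and measure […].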

[3] = ratio of the KD value with respect to GDP-bound NRAS wild-type protein to the KD value with respect to KRAS
[4] = ratio of the KD value with respect to HRAS wild-type protein to the KD value with respect to KRAS
[5] = ratio of KD for GDP-bound NRAS wild-type protein to KD for KRAS
[6] = ratio of KD for HRAS wild-type protein to KD for KRAS

Sequence of HRAS wild-type protein (P01112 whole entry): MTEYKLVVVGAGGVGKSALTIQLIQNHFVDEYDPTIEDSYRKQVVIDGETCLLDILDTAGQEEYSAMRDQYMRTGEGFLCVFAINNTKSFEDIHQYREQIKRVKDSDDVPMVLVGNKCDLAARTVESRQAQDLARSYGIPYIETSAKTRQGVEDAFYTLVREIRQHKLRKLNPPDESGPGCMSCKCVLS
Sequence of GDP-bound NRAS wild-type protein (P01111 whole entry): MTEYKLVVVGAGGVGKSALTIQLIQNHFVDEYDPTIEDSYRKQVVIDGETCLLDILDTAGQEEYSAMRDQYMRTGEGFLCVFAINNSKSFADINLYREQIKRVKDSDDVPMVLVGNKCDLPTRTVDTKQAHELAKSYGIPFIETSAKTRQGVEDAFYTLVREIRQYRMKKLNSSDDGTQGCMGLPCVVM

Structure (SMILES) | IC50 [2] [nM] | NRAS /KRAS [1, 3] | HRAS /KRAS (HRAS wild-type protein; [4]) | NRAS /KRAS [1, 5] | HRAS /KRAS (HRAS wild-type protein; [6]) | NRAS /KRAS ([1]; ratio of KD value for GDP-bound NRAS wild-type protein to KD value for KRAS (SPR)) | HRAS /KRAS (HRAS wild-type protein; ratio of KD value for HRAS wild-type protein to KD value for KRAS (SPR))
CCO[C@@H]1C[C@H]2C(=O)NC3(CC(C)(C)C3)C(=O)N(C)[C@@H](C3CCCC3)C(=O)N(C)[C@H](C(=O)N(C)C)CC(=O)N(C)[C@@H](C3CCC3)C(=O)N[C@@H]([C@@H](C)CC)C(=O)N(C)CC(=O)N(C)[C@H]3C/C=C\CCN(C3=O)[C@@H](Cc3ccc(C(F)(F)F)cc3)C(=O)N(C)CC(=O)N[C@@H](CCc3ccc(C(F)(F)F)c(OC)c3)C(=O)N2C1 [PP1987] | 6.6 | A (a compound having 10 or more and less than 20 is denoted as A) | A (a compound having 10 or more and less than 20 is denoted as A) |  |  |  | 
CCC[C@H]1C(=O)N[C@@H]([C@@H](C)CC)C(=O)N(C)CC(=O)N(C)[C@H]2C/C=C\CCN(C2=O)[C@@H](Cc2ccc(C)cc2)C(=O)N(C)CC(=O)N[C@@H](CCc2cc(F)c(C(F)(F)F)c(F)c2)C(=O)N2C[C@H](OCC)C[C@H]2C(=O)N(C)C2(CCC2)C(=O)N(C)[C@@H](C2CCCC2)C(=O)N(C)[C@H](C(=O)N2CCCC2)CC(=O)N1C [PP3121] | 1.5 |  |  | A (a compound having 10 or more and less than 20 is denoted as A) | A (a compound having 10 or more and less than 20 is denoted as A) |  | 
CCCN1C(=O)[C@@H]2CCN2C(=O)[C@H](C)N(C)C(=O)[C@H]([C@@H](C)CC)NC(=O)[C@H](CC(C)C)N(C)C(=O)C[C@@H](C(=O)N2CCOCC2)N(C)C(=O)[C@H](C2CCCC2)N(C)C(=O)C2(CCCC2)NC(=O)[C@@H]2C[C@H](OCC)CN2C(=O)[C@H](CCc2ccc(C(F)(F)F)c(Cl)c2)NC(=O)CN(C)C(=O)[C@@H]1Cc1ccc(C(F)(F)F)cc1 [PP0242] ([NMeL]I[NMeA][Aze][NPrPhe(4-CF3)][Sar][hPhe(3-Cl-4-CF3)][cisHyp](Et)[Ac5c][NMeGly(cPent)][NMeD]-Morpholide; lactam N-11) | 5 |  |  | C (A compound having a KD ratio of 0.1 or more and less than 3 is denoted as C) | C (A compound having a KD ratio of 0.1 or more and less than 3 is denoted as C) |  | 

More lines, in order of falling IC50 [2], values ahead:

IC50 [2] [nM] | Structure (SMILES) | NRAS /KRAS [1, 3] | HRAS /KRAS (HRAS wild-type protein; [4]) | NRAS /KRAS [1, 5] | HRAS /KRAS (HRAS wild-type protein; [6]) | NRAS /KRAS ([1]; ratio of KD value for GDP-bound NRAS wild-type protein to KD value for KRAS (SPR)) | HRAS /KRAS (HRAS wild-type protein; ratio of KD value for HRAS wild-type protein to KD value for KRAS (SPR))
10.3 | CCO[C@@H]1C[C@H]2C(=O)NC3(CCC3)C(=O)N(C)[C@@H](C3CCCC3)C(=O)N(C)[C@H](C(=O)N(C)C)CC(=O)N(C)[C@@H](CC)C(=O)N[C@@H]([C@@H](C)CC)C(=O)N(C)CC(=O)N(C)[C@H]3CCCCN(C3=O)[C@@H](Cc3ccc(C(F)(F)F)cc3)C(=O)N(C)CC(=O)N[C@@H](CCc3cc(Cl)c(Cl)c(Cl)c3)C(=O)N2C1 [PP0988] |  |  | C (A compound having a KD ratio of 0.1 or more and less than 3 is denoted as C) | B (a compound having 3 or more and less than 10 is denoted as B) |  | 
6.1 | C=CCN1CC(=O)N(C)[C@H]2C/C=C\CCN(C2=O)[C@@H](Cc2ccc(C(F)(F)F)cc2)C(=O)N(C)CC(=O)N[C@@H](CCc2ccc(C(F)(F)F)c(OC)c2)C(=O)N2C[C@H](OCC)C[C@H]2C(=O)NC2(CC(C)(C)C2)C(=O)N(C)[C@@H](C2CCCC2)C(=O)N(C)[C@H](C(=O)N(C)C)CC(=O)N(C)[C@@H](CCC)C(=O)N[C@@H]([C@@H](C)CC)C1=O [PP2106] | A (a compound having 10 or more and less than 20 is denoted as A) | A (a compound having 10 or more and less than 20 is denoted as A) |  |  |  | 
1.5 | CCCN(C)C(=O)[C@@H]1CC(=O)N(C)[C@@H](COC)C(=O)N[C@@H]([C@@H](C)CC)C(=O)N(C)CC(=O)N(C)[C@H]2C/C=C\CCN(C2=O)[C@@H](Cc2ccc(C(F)(F)F)cc2)C(=O)N(C)CC(=O)N[C@@H](CCc2ccc(C(F)(F)F)c(OC)c2)C(=O)N2C[C@H](OCC)C[C@H]2C(=O)NC2(CC(C)(C)C2)C(=O)N(C)[C@@H](C2CCCC2)C(=O)N1C [PP1656] |  |  |  |  | AA (a compound having 20 or more is denoted as AA) | A (a compound having 10 or more and less than 20 is denoted as A)
